Laboratory results published in ChEMBL document CHEMBL4507291 (2021).

Tests used:
[1] = target: Alpha-1B adrenergic receptor (Homo sapiens) (UniProt P35368); details: Compound concentration 10.0 uM
[2] = target: Calcium/calmodulin-dependent protein kinase kinase 2 (Homo sapiens) (UniProt Q96RR4); experiment: CAMKK2 (CaMKK beta) Kinase screen; details: Compound concentration 1.0 uM
[3] = target: T1, Inhibitor of nuclear factor kappa-B kinase subunit alpha (Homo sapiens) (UniProt O15111); experiment: CHUK (IKK alpha) Kinase screen; details: Compound concentration 1.0 uM
T1 sequence (whole entry): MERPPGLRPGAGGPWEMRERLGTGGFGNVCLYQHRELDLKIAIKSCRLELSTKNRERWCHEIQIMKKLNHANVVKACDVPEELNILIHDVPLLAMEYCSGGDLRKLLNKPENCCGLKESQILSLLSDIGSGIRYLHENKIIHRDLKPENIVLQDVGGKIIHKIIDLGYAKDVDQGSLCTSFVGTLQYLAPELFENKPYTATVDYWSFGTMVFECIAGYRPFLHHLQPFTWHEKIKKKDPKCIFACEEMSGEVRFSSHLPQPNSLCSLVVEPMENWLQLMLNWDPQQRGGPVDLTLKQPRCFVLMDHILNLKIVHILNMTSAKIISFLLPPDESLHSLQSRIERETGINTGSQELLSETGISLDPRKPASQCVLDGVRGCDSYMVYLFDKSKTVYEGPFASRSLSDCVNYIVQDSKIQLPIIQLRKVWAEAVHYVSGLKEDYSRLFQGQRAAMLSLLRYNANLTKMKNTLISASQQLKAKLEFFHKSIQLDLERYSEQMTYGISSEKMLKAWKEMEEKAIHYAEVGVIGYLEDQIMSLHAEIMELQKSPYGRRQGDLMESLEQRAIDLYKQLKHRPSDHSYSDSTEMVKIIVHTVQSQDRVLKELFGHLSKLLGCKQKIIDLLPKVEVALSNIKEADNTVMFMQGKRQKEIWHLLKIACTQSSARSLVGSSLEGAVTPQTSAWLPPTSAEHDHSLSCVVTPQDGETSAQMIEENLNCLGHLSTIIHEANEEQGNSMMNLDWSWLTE

[4] = target: MAP kinase-interacting serine/threonine-protein kinase 1 (Homo sapiens) (UniProt Q9BUB5); experiment: MKNK1 (MNK1) Kinase screen; details: Compound concentration 1.0 uM
MAP kinase-interacting serine/threonine-protein kinase 1 (Homo sapiens), sequence (Q9BUB5 whole entry, looked up): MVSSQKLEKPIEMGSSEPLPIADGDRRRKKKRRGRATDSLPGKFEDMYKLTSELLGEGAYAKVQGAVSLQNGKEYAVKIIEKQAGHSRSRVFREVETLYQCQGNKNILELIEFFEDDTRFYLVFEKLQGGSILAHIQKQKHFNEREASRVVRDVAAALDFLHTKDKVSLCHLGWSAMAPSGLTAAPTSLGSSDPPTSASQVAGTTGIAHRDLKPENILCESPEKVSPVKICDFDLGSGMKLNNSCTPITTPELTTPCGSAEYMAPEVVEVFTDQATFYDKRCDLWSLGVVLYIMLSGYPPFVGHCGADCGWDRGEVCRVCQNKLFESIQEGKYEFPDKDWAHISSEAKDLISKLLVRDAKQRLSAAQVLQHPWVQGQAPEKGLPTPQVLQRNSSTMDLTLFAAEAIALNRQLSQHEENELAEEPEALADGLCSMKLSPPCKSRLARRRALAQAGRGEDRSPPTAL

[5] = target: T2, Dual specificity protein kinase TTK (Homo sapiens) (UniProt P33981); experiment: TTK Kinase screen; details: Compound concentration 1.0 uM
T2 sequence (whole entry): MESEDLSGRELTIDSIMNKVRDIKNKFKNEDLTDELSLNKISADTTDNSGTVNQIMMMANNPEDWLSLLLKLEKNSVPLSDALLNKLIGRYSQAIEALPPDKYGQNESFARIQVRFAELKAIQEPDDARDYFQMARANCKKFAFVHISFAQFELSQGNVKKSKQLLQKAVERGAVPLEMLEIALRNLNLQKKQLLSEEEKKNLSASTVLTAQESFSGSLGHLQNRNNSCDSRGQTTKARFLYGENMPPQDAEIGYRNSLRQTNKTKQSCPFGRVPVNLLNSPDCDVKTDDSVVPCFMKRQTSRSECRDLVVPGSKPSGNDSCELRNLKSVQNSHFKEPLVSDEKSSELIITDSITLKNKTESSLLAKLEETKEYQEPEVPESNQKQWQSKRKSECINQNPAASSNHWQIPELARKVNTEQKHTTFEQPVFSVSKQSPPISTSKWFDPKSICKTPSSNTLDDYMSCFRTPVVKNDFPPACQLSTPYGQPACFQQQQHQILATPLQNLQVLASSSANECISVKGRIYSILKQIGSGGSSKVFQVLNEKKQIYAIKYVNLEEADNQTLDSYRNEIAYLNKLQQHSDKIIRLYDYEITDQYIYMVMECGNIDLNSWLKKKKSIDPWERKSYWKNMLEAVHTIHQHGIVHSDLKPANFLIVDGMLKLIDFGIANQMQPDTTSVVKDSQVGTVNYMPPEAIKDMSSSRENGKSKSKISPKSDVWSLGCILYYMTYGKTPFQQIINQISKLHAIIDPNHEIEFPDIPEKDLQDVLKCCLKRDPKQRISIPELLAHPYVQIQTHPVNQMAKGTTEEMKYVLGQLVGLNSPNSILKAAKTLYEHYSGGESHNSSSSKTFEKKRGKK

[6] = target: Serine/threonine-protein kinase 16 (Homo sapiens) (UniProt O75716); experiment: STK16 (PKL12) Kinase screen; details: Compound concentration 1.0 uM
Serine/threonine-protein kinase 16 (Homo sapiens), sequence (O75716 whole entry): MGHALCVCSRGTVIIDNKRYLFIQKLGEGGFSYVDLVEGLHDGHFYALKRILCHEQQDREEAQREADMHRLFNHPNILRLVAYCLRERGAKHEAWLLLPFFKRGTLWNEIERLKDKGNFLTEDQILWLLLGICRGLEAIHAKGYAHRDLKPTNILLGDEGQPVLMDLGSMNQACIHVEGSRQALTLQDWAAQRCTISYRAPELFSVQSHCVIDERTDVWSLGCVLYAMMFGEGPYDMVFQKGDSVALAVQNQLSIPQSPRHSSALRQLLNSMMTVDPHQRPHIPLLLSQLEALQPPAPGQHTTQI

[7] = target: T3, Serine/threonine-protein kinase D2 (Homo sapiens) (UniProt Q9BZL6); experiment: PRKD2 (PKD2) Kinase screen; details: Compound concentration 1.0 uM
T3 sequence (whole entry): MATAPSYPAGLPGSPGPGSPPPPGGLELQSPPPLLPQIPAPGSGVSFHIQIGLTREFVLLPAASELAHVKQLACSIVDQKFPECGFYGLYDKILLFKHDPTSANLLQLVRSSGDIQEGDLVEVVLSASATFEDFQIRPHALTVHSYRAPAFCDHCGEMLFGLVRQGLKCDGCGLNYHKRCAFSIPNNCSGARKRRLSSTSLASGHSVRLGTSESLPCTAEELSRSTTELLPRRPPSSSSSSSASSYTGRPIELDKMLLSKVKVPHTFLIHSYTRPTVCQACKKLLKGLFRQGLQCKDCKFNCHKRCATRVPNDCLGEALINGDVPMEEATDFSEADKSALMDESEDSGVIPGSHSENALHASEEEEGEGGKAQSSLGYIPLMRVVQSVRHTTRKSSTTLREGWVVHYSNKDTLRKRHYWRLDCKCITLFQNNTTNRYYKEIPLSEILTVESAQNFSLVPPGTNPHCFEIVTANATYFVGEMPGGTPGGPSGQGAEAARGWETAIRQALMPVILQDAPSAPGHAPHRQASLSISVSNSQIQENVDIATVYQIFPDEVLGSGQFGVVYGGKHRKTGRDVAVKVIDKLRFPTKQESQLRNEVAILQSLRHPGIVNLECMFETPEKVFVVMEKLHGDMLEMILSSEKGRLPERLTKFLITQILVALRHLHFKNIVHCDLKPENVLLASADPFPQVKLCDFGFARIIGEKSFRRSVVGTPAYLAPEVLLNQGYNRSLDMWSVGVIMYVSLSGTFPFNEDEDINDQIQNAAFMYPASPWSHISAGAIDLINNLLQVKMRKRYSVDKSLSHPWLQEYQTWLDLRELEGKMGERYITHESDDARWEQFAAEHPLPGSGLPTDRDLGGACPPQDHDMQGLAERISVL

Measured: inhibition

Calcium/calmodulin-dependent protein kinase kinase 2 (Homo sapiens), sequence (Q96RR4 2-588 limits assumed): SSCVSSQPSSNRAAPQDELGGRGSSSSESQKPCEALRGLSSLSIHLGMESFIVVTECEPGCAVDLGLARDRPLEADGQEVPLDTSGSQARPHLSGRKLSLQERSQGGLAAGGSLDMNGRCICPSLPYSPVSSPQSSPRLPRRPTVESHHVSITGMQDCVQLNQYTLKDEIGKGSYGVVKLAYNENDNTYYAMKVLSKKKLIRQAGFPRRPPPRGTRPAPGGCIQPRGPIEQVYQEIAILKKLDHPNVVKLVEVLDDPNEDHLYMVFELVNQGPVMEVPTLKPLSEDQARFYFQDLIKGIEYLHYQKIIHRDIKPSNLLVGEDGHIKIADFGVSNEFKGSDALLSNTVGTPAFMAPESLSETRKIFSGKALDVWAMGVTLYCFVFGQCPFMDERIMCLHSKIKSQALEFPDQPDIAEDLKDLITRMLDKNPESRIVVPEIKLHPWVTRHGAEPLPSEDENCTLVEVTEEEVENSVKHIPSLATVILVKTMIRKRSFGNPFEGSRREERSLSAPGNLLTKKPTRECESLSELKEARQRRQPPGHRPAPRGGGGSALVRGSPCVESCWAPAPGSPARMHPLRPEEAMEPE
Alpha-1B adrenergic receptor (Homo sapiens), sequence (P35368 whole entry): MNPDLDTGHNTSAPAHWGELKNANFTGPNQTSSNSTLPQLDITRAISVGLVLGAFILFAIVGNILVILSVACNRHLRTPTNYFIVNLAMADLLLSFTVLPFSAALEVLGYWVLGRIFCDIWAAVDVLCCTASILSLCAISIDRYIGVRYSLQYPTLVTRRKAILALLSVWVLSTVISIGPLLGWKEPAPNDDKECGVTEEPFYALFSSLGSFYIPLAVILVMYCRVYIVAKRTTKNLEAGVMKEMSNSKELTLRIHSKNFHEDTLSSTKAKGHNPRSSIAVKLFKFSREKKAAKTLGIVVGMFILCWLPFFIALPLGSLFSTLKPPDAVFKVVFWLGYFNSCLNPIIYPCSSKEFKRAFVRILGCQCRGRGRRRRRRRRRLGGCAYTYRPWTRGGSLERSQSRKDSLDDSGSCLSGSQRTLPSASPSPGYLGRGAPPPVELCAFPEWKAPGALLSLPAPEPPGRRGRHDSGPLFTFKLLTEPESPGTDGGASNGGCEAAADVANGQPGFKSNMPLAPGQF

C[C@@H]1CN(c2cc(-c3nn(C)c4ccc(OC5(C)CC5)cc34)ncn2)C[C@H](C)O1 [MLi-2-NC]
inactive: [1] 3.72%

C[C@@H]1CN(c2cc(-c3n[nH]c4ccc(OC5(C)CC5)cc34)ncn2)C[C@H](C)O1 [MLi-2]
inactive: [2] 19.8% | [3] 8.17% | [4] -3.19% | [5] 56.5% | [6] 2.58% | [7] 19%
